Reference: US12104195B2, “Reelin/VEGF-C production/activation promoter and skin external composition using the same” (Amorepacific Corporation, priority 2022, dated 2024)

Key:
[1] = tested on: reelin; assay: Reelin cytokine analysis (Human reelin ELISA Kit) in human dermal lymphatic endothelial cells; assay type: cell-based; details: HDLEC, 48 hours, compared with DMSO control group (100%); extract 1-100 μg/ml, compound 100-2000 nmole; FIGS. 3 and 4
Description: Human dermal lymphatic endothelial cells were cultured in 6 well plates for 24 hours, while treated with DMSO as a control group (reference; 100%), treated with the fermented ginseng extract of the preparation example and the compound represented by Chemical Formula 1-1 (Sigma-Aldrich Co., Ltd.) at each concentration of 1 μg/ml, 10 μg/ml, 20 μg/ml, 50 μg/ml, and 100 μg/ml and at each concentration of 100 nmole, 250 nmole, 500 nmole, 1000 nmole, and 2000 nmole, cultured for 48 hours, and then measured with respect to production and activity of reelin through a reelin cytokine analysis according to a manual by using Human reelin ELISA Kit (Mybiosource, Inc., U.S.A.), and the results are shown in FIGS. 3 and 4.

[2] = tested on: VEGF-C; assay: VEGF-C cytokine analysis (VEGFC Human ELISA Kit) in normal human epidermal keratinocytes; assay type: cell-based; details: NHEK, 48 hours, compared with DMSO control group (100%); extract 1-100 μg/ml, compound 100-2000 nmoles; FIGS. 5 and 6
Description: Normal human epidermal keratinocytes were cultured in 6 well plates for 24 hours, while treated with DMSO as a control group (reference; 100%), treated with the fermented ginseng extract of the preparation example and the compound represented by Chemical Formula 1-1 (Sigma-Aldrich Co., Ltd.) at each concentration of 1, 10, 20, 50 and 100 μg/ml and at each concentration of 100, 250, 500, 1000, and 2000 nmoles, cultured for 48 hours, and then measured with respect to production and activity of VEGF-C through VEGF-C cytokine analysis by using VEGFC Human ELISA Kit (ThermoFisher Scientific, U.S.A.) according to a manual, and the results are shown in FIGS. 5 and 6.

CC(C)=CCC[C@](C)(O[C@@H]1O[C@H](CO[C@@H]2O[C@H](CO)[C@@H](O)[C@H](O)[C@H]2O)[C@@H](O)[C@H](O)[C@H]1O)[C@H]1CC[C@]2(C)[C@@H]1[C@H](O)C[C@@H]1[C@@]3(C)CC[C@H](O[C@@H]4O[C@H](CO)[C@@H](O)[C@H](O)[C@H]4O)C(C)(C)[C@@H]3CC[C@]12C
production and activity of reelin [1]: improved production and activity of reelin
production and activity of VEGF-C [2]: more improved the production and activity of VEGF-C
